According to ChEMBL document CHEMBL3808363, “2-(Thienothiazolylimino)-1,3-thiazolidin-4-ones inhibit cell division cycle 25 A phosphatase” (Bioorg Med Chem, 2016):
Active and inactive are the calls of the source. No cut-off for these calls is given here.

How the values were obtained:
MDA-MB-231 [1] = experiment: Cytotoxicity against human MDA-MB-231 cells assessed as inhibition of cell growth after 72 hrs by MTT assay; assay type: functional, cell-based; conditions: MDA-MB-231, 72 h
[2] = Cytotoxicity against human HCT116 cells assessed as inhibition of cell growth after 72 hrs by MTT assay; assay type: functional, cell-based; conditions: HCT-116, 72 h
HT-29 = experiment: Cytotoxicity against human HT-29 cells assessed as inhibition of cell growth after 72 hrs by MTT assay; assay type: functional, cell-based; conditions: HT-29, 72 h
MCF7 [3] = experiment: Cytotoxicity against human MCF7 cells assessed as inhibition of cell growth after 72 hrs by MTT assay; assay type: functional, cell-based; conditions: MCF7, 72 h
[4] = target: T1, M-phase inducer phosphatase 2 (Homo sapiens) (UniProt P30305); experiment: Inhibition of human recombinant GST-tagged CDC25B catalytic domain transfected in Escherichia coli BL21-DE3 using 3-O-methylfluorescein phosphate as substrate at 10 uM incubated for 20 mins followed by substrate addition measured every 10 mins for 2 hrs by fluorimetric assay
T1 sequence (whole entry): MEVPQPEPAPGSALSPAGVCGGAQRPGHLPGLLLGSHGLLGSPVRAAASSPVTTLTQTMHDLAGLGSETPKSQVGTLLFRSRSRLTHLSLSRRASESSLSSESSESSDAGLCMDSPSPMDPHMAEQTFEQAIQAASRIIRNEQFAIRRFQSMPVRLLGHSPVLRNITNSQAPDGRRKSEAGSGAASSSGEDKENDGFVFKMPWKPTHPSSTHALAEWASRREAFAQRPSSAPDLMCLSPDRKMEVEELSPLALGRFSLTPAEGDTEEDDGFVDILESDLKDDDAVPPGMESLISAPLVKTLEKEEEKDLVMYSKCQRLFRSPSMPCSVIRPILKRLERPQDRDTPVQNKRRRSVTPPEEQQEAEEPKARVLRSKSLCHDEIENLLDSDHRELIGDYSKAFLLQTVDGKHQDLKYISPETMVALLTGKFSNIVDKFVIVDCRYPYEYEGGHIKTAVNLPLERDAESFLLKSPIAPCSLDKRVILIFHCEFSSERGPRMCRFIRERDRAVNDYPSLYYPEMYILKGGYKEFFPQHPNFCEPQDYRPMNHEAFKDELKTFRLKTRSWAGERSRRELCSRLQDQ

[5] = target: T2, M-phase inducer phosphatase 1 (Homo sapiens) (UniProt P30304); experiment: (§1) Inhibition of human recombinant full length GST-tagged CDC25A transfected in Escherichia coli BL21-DE3 using 3-O-methylfluorescein phosphate as substrate at 10 uM incubated for 20 mins followed by substrate addition measured every 10 mins for 2 hrs by fluorimetric assay
T2 sequence (whole entry): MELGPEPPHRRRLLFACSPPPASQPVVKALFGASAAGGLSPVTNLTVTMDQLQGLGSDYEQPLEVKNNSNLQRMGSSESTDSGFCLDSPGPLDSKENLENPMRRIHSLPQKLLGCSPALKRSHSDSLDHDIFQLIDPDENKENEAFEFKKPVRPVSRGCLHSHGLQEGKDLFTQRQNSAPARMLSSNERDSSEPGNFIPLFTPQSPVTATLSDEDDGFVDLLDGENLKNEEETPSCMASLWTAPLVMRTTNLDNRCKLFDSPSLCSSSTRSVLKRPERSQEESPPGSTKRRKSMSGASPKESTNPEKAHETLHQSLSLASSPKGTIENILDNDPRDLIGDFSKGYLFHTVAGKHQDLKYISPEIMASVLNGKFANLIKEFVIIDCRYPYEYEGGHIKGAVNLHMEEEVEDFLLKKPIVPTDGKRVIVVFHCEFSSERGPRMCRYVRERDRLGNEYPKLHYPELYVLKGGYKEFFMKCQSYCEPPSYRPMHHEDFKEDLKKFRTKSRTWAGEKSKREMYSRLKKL

[6] = target: T3, M-phase inducer phosphatase 3 (Homo sapiens) (UniProt P30307); experiment: Inhibition of human recombinant full length GST-tagged CDC25C transfected in Escherichia coli BL21-DE3 using 3-O-methylfluorescein phosphate as substrate at 10 uM incubated for 20 mins followed by substrate addition measured every 10 mins for 2 hrs by fluorimetric assay
T3 sequence (whole entry): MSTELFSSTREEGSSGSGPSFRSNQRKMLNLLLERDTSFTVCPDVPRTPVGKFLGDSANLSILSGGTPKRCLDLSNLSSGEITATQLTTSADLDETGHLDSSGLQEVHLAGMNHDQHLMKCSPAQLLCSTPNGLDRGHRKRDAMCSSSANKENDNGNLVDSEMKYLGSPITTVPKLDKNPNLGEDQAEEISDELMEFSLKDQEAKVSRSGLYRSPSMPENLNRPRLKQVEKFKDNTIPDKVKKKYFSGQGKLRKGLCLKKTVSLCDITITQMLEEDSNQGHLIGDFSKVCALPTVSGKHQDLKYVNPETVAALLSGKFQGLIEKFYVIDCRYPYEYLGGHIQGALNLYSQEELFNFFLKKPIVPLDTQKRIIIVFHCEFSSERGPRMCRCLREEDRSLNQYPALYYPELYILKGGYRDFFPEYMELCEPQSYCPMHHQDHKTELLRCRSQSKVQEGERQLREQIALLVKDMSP

MDA-MB-231 [7] = experiment: Cytotoxicity against human MDA-MB-231 cells assessed as inhibition of cell growth at IC50 concentration after 72 hrs by trypan blue assay; assay type: functional
MCF7 [8] = experiment: Cytotoxicity against human MCF7 cells assessed as inhibition of cell growth at IC50 concentration after 72 hrs by trypan blue assay; assay type: functional
[9] = target: T4, M-phase inducer phosphatase 1 (Homo sapiens, UniProt P30304); experiment: Inhibition of human recombinant full length GST-tagged CDC25A transfected in Escherichia coli BL21-DE3 using 3-O-methylfluorescein phosphate as substrate incubated for 20 mins followed by substrate addition measured every 10 mins for 2 hrs by fluorimetric assay
T4 sequence (P30304 whole entry): T2 sequence (whole entry)

[10] = target: T2, M-phase inducer phosphatase 1 (Homo sapiens); experiment: Reversible binding affinity to human recombinant full length GST-tagged CDC25A transfected in Escherichia coli BL21-DE3 after 1 hr by MALDI-TOF mass spectrometry
[11] = target: T2, M-phase inducer phosphatase 1 (Homo sapiens); experiment: as §1, with “assay in presence of 0.5% triton X 100” for “assay”
[12] = target: T2, M-phase inducer phosphatase 1 (Homo sapiens); experiment: (§2) Inhibition of human recombinant full length GST-tagged CDC25A transfected in Escherichia coli BL21-DE3 using 3-O-methylfluorescein phosphate as substrate at 10 uM incubated for 20 mins followed by substrate addition measured every 10 mins for 2 hrs by fluorimetric assay in presence of 0.1% BSA
[13] = target: T2, M-phase inducer phosphatase 1 (Homo sapiens); experiment: as §1, with “assay in presence of 0.025% triton X 100” for “assay”
[14] = target: T2, M-phase inducer phosphatase 1 (Homo sapiens); experiment: as §1, with “assay in presence of 0.01% triton X 100” for “assay”
[15] = target: T2, M-phase inducer phosphatase 1 (Homo sapiens); experiment: as §2, with “triton X 100” for “BSA”
[16] = target: T2, M-phase inducer phosphatase 1 (Homo sapiens); experiment: as §1, with “assay in presence of 0.05% triton X 100” for “assay”
MDA-MB-231 [17] = experiment: Cytotoxicity against human MDA-MB-231 cells assessed as cell growth at IC50 concentration after 72 hrs by trypan blue assay; assay type: functional
MCF7 [18] = experiment: Cytotoxicity against human MCF7 cells assessed as cell growth at IC50 concentration after 72 hrs by trypan blue assay; assay type: functional

Row | Compound | IC50 (MDA-MB-231 [1]) | IC50 [2] | IC50 (HT-29) | IC50 (MCF7 [3]) | inhibition [4] | inhibition [5] | inhibition [6] | growth inhibition (GI) (MDA-MB-231 [7]) | growth inhibition (GI) (MCF7 [8]) | IC50 [9] | Activity [10] | inhibition [11] | inhibition [12] | inhibition [13] | inhibition [14] | inhibition [15] | inhibition [16] | Activity (MDA-MB-231 [17]) | Activity (MCF7 [18])
1 | O=C1CS/C(=N\c2nc3cc(-c4ccc(Cl)cc4)sc3s2)N1 | 18.8 µM | 14.5 µM | 13.6 µM | 12.4 µM | 21.6% | 6.8% | 16.4% |  |  |  |  |  |  |  |  |  |  |  | 
2 | O=C1N/C(=N/c2nc3cc(-c4ccc(Cl)cc4)sc3s2)S/C1=C/c1ccc(F)cc1 | 24.7 µM |  | > 50 µM | 21 µM | 35.4% | 65.6% | 15.5% | 30% | 60% | 7.8 µM | Active |  |  |  |  |  |  |  | 
3 | O=C1N/C(=N/c2nc3cc(-c4ccc(Br)cc4)sc3s2)S/C1=C/c1ccc(Cl)cc1 | 22.3 µM | 15.5 µM | 15.2 µM | 11 µM | 3.8% | 28.4% | 6.1% | 35% | 25% |  |  |  |  |  |  |  |  |  | 
4 | O=C1N/C(=N/c2nc3cc(-c4ccc(Cl)cc4)sc3s2)S/C1=C/c1ccc(Cl)cc1 |  |  | > 50 µM | > 50 µM |  |  |  |  |  |  |  |  |  |  |  |  |  |  | 
5 | Cc1ccc(/C=C2/S/C(=N\c3nc4cc(-c5ccc(Cl)cc5)sc4s3)NC2=O)cc1 | 22.8 µM |  | 45.5 µM | 3.3 µM | 24.2% | 68.1% | 23.3% | 70% | inactive | 8.3 µM | Active |  |  |  |  |  |  |  | 
6 | CN(C)c1ccc(/C=C2/S/C(=N\c3nc4cc(-c5ccc(Cl)cc5)sc4s3)NC2=O)cc1 |  |  | > 50 µM | > 50 µM |  |  |  |  |  |  |  |  |  |  |  |  |  |  | 
7 | O=C1CS/C(=N\c2nc3cc(-c4ccc(Cl)cc4)[se]c3s2)N1 | 35.6 µM | 43.8 µM | 42.4 µM | 21.8 µM | 17.4% | 4.2% | 15.6% |  |  |  |  |  |  |  |  |  |  |  | 
8 | O=C1C=CC(=O)c2ccccc21 |  |  |  |  | 71.2% | 79.7% | 99.2% |  |  |  |  | 26.3% | 20.3% | 18.6% | 20.6% | 24.7% | 26.5% |  | 
9 | O=C1N/C(=N/c2nc3cc(-c4ccc(Cl)cc4)sc3s2)S/C1=C/c1ccc2ccccc2c1 | > 50 µM |  | > 50 µM | 15.2 µM | 27.3% | 67% | 22.6% |  |  | 7.3 µM | Active |  |  |  |  |  |  | >80% | >80%
